This is an account of results in patent US10301288B2, “Kinase inhibitors” (Topivert Pharma Limited, priority 2013, dated 2019).

pIC50: −log10 of the molar value.

One assay concerns the target c-Src (Homo sapiens (Human), UniProt P12931). Nature of the assay: c-Src enzyme inhibition (FRET). Type of assay: biochemical. On the procedure: (§1) The enzyme inhibitory activities of compounds disclosed herein are determined by FRET using synthetic peptides labelled with both donor and acceptor fluorophores (Z-LYTE, Invitrogen Ltd., Paisley, UK).
(§2) The inhibitory activities of compounds of the invention against c-Src and Syk enzymes (Invitrogen), are evaluated in a similar fashion to that described hereinabove. The relevant enzyme (3000 ng/mL or 2000 ng/mL respectively, 2.5 μL) is incubated with the test compound (either 4 μg/mL, 0.4 μg/mL, 0.04 μg/mL, or 0.004 μg/mL, 2.5 μL each) for 2 hr at RT. The FRET peptides (8 μM. 2.5 μL), and appropriate ATP solutions (2.5 μL, 800 μM for c-Src, and 60 μM ATP for Syk) are then added to the enzymes/compound mixtures and incubated for 1 hr. Development reagent (protease, 5 μL) is added for 1 hr prior to detection in a fluorescence microplate reader (Varioskan® Flash, ThermoFisher Scientific).
(§3) In all cases, the site-specific protease cleaves non-phosphorylated peptide only and eliminates the FRET signal. Phosphorylation levels of each reaction are calculated using the ratio of coumarin emission (donor) over fluorescein emission (acceptor), for which high ratios indicate high phosphorylation and low ratios indicate low phosphorylation levels.

A further assay has as its target Syk (Homo sapiens (Human), UniProt P43405). Briefly: Syk enzyme inhibition (FRET). Type of assay: biochemical. On the procedure: as §1, §2, §3
Another assay has as its target GSK3α (Homo sapiens (Human), UniProt P49840). Nature of the assay: GSK 3α enzyme inhibition (FRET, Method 2). Type of assay: biochemical. Here is the method: as §1
The inhibitory activities of compounds of the invention against the GSK 3α enzyme isoform (Invitrogen), are evaluated by determining the level of activation/phosphorylation of the target peptide. The GSK3-α protein (500 ng/mL, 2.5 μL) is mixed with the test compound (2.5 μL at either 4 μg/mL, 0.4 μg/mL, 0.04 μg/mL, or 0.004 μg/mL) for 2 hr at RT. The FRET peptide (8 μM, 2.5 μL), which is a phosphorylation target for GSK3α, and ATP (40 μM, 2.5 μL) are then added to the enzyme/compound mixture and the resulting mixture incubated for 1 hr. Development reagent (protease, 5 μL) is added for 1 hr prior to detection in a fluorescence microplate reader (Varioskan® Flash, ThermoFisher Scientific).
as §3

A further assay has as its system PBMCs. Nature of the assay: (b) LPS-induced TNFα/IL-8 release in PBMC cells. Type of assay: cell-based. Conditions: Homo sapiens, read-out: IC50 for Inhibition of Cytokine Release, IL-8. Here is the method:
Peripheral blood mononuclear cells (PBMCs) from healthy subjects are separated from whole blood using a density gradient (Lymphoprep, Axis-Shield Healthcare). The PBMCs are seeded in 96 well plates and treated with compounds at the desired concentration for 2 hours before addition of 1 ng/ml LPS (Escherichia Coli 0111:B4 from Sigma Aldrich) for 24 hours under normal tissue culture conditions (37° C., 5% CO2). The supernatant is harvested for determination of IL-8 and TNFα concentrations by sandwich ELISA (Duo-set, R&D systems) and read on the fluorescence microplate reader (Varioskan® Flash, ThermoFisher Scientific).

Another assay has as its target p38 MAPKα (Homo sapiens (Human), UniProt Q16539). Briefly: p38 MAPKα enzyme inhibition (FRET, Method 2). Type of assay: biochemical. Here is the method: as §1
The inhibitory activities of test compounds against the p38 MAPKα isoform (MAPK14: Invitrogen), are evaluated indirectly by determining the level of activation/phosphorylation of the down-stream molecule, MAPKAP-K2. The p38 MAPKα protein (80 ng/mL, 2.5 μL) is mixed with the test compound (2.5 μL of either 4 μg/mL, 0.4 μg/mL, 0.04 μg/mL or 0.004 μg/mL) for 2 hr at RT. […] The mixture is incubated for 1 hr at RT. Development reagent (protease, 5 μL) is added for 1 hr prior to detection in a fluorescence microplate reader (Varioskan® Flash, ThermoFisher Scientific).
as §3

In a further assay the test system is HT29 cells. Briefly: (d) IL-1β-induced IL-8 release in HT29 cells. Type of assay: cell-based. The conditions noted are these: Homo sapiens, HT-29, read-out: IC50 for Inhibition of Cytokine Release, IL-8. Here is the method:
HT29 cells, a human colon adenocarcinoma cell line, are plated in a 96 well plate (24 hrs) and pre-treated with compounds at the desired concentration for 2 hours before addition of 5 ng/ml of IL-1β (Abeam) for 24 hours. Supernatants are harvested for IL-8 quantification by Sandwich ELISA (Duo-set, R&D System). The IC50 is determined from the dose response curve.

In another assay the test system is kinases. Briefly: KinomeScan selectivity scores / number of hits. Type of assay: binding. On the procedure:
These assays may be conducted by DiscoverX (formerly Ambit; San Diego, Calif.). The percentage inhibition produced by incubation with a test compound may be calculated relative to the non-inhibited control.

A further assay has as its system β-catenin. Briefly: (m) Accumulation of β catenin in d-U937 cells. Conditions: 1 μg/mL; Reference Compound at 1 μg/mL defined as 100%. Type of assay: cell-based, human. On the procedure: U937 cells, a human monocytic cell line, are differentiated into macrophage-type cells by incubation with PMA; (100 ng/mL) for between 48 to 72 hr. The cells are then incubated with either final concentrations of test compound or vehicle for 18 hr. The induction of β-catenin by the test compounds is stopped by replacing the media with 4% formaldehyde solution. Endogenous peroxide activity is neutralised by incubating with quenching buffer (100 μL, 0.1% sodium azide, 1% H2O2 in PBS with 0.05% Tween-20) for 20 min. The cells are washed with washing buffer (200 μL; PBS containing 0.05% Tween-20) and incubated with blocking solution (200 μL; 5% milk in PBS) for 1 hr, re-washed with washing buffer (200 μL) and then incubated overnight with anti-β-catenin antibody solution (50 μL) in 1% BSA/PBS (BD, Oxford, UK).
After washing with washing buffer (3×200 μL; PBS containing 0.05% Tween-20), cells are incubated with an HRP-conjugated secondary antibody solution (100 μL) in 1% BSA/PBS (Dako, Cambridge, UK) and the resultant signal is determined colourimetrically (OD: 450 nm with a reference wavelength of 655 nm) using TMB substrate (50 μL; R&D Systems, Abingdon, UK). This reaction is stopped by addition of 1N H2SO4 solution (50 μL). Cells are then washed with washing buffer and 2% crystal violet solution (50 μL) is applied for 30 min. After washing with washing buffer (3×200 μL), 1% SDS (100 μL) is added to each well and the plates are shaken lightly for 1 hr prior to measuring the absorbance at 595 nm (Varioskan® Flash, Thermo-Fisher Scientific).
The measured OD450-655 readings are corrected for cell number by dividing the OD450-655 by the OD595 readings.

The term pIC50 denotes −log10 of the IC50, conventionally taken in molar units.

Sequence of c-Src (P12931 whole entry, looked up): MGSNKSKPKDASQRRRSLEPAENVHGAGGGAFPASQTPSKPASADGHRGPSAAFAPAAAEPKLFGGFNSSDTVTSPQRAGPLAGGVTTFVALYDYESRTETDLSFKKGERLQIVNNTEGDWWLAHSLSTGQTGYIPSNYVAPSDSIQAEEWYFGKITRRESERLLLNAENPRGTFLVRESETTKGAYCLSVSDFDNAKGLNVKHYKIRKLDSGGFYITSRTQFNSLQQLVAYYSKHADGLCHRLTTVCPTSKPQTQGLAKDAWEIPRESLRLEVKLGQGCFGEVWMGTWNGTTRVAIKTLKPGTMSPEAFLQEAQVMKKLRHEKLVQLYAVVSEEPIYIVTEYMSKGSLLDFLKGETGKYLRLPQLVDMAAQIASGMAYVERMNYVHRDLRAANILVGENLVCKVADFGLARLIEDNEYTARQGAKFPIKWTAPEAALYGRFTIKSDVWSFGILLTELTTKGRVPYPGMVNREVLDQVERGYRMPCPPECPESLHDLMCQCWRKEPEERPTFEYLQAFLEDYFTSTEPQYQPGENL
Sequence of GSK3α (P49840 whole entry, canonical isoform): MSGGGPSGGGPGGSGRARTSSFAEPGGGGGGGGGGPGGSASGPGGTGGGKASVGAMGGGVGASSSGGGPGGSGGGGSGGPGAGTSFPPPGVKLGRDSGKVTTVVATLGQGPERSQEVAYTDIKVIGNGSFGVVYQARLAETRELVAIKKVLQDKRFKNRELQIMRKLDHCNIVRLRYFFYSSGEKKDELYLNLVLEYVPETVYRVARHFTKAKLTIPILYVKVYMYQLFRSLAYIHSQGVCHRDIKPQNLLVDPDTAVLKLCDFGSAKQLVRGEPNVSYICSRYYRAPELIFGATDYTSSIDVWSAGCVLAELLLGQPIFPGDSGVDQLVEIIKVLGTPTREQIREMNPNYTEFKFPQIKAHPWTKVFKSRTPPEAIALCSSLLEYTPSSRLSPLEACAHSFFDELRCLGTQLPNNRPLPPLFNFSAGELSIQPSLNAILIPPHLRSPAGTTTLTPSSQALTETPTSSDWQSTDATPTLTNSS
Sequence of p38 MAPKα (Q16539 whole entry, canonical isoform): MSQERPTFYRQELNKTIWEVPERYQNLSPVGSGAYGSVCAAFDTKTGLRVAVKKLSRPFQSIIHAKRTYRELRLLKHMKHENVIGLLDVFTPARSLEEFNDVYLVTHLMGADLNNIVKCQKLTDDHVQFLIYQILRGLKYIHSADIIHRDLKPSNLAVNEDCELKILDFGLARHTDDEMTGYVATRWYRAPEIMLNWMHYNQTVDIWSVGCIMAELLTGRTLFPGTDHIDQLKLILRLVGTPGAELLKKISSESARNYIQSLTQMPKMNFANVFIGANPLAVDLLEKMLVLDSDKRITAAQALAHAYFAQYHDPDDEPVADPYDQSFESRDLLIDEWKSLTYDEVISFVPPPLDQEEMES

As for `COCCOCCOCCNC(=O)c1cc(Nc2nccc(Oc3ccc(NC(=O)Nc4cc(C(C)(C)C)nn4-c4ccc(N(C)C)cc4)c4ccccc34)n2)cc(OC)c1` [Example 16, 3-((4-((4-(3-(3-(tert-Butyl)-1-(4-(dimethylamino)phenyl)-1H-pyrazol-5-yl)ureido)-naphthalen-1-yl)oxy)pyrimidin-2-yl)amino)-5-methoxy-N-(2-(2-(2-methoxyethoxy)-ethoxy)ethyl)benzamide], the negative logarithm of the IC50 (pIC50) against c-Src was 7.82; against Syk, 7.57; against GSK3α, 6.19; in the assay on PBMCs it was 8.57.

Consider `C#Cc1cc(Nc2nccc(Oc3ccc(NC(=O)Nc4cc(C(C)(C)C)nn4-c4cccc(CP(C)(C)=O)c4)c4ccccc34)n2)cc(C(=O)NCCOCCOCCOC)c1` [Example 14, 3-((4-((4-(3-(3-(tert-Butyl)-1-(3-((dimethylphosphoryl)methyl)phenyl)-1H-pyrazol-5-yl)-ureido)naphthalen-1-yl)oxy)pyrimidin-2-yl)amino)-5-ethynyl-N-(2-(2-(2-methoxyethoxy)-ethoxy)ethyl)benzamide], for which the pIC50 is 7.06 against p38 MAPKα; 8.40 on c-Src; 7.70 at Syk; 6.40 at GSK3α; 8.82 with PBMCs; 8.82 in the assay with HT29 cells.

Regarding `C#Cc1cc(Nc2nccc(Oc3ccc(NC(=O)Nc4cc(C(C)(C)C)nn4-c4ccc(OC)cc4C)c4ccccc34)n2)cc(C(=O)NCCOCCOCCOC)c1` [Example 17, 3-((4-((4-(3-(3-(tert-Butyl)-1-(4-methoxy-2-methylphenyl)-1H-pyrazol-5-yl)ureido)-naphthalen-1-yl)oxy)pyrimidin-2-yl)amino)-5-ethynyl-N-(2-(2-(2-methoxyethoxy)-ethoxy)ethyl)benzamide], the figures for the pIC50 against GSK3α and with PBMCs were 4.92 and 8.30, respectively.

For the molecule `COCC(=O)Nc1cc(Oc2ccc(NC(=O)Nc3cc(C(C)(C)C)nn3-c3ccc(C)cc3)c3ccccc23)ccn1` [Reference Compound, N-(4-(4-(3-(3-tert-butyl-1-p-tolyl-1H-pyrazol-5-yl)ureido)naphthalen-1-yloxy)pyridin-2-yl)-2-methoxyacetamide, reference compound], in the assay with kinases (50 nM), the “KinomeScan S(1) number of hits” value is recorded as 7, the “KinomeScan S(10) number of hits” value is on record as 32 and the “KinomeScan S(35) number of hits” value was 67. For the same molecule, in the assay on kinases (500 nM), the “KinomeScan S(1) number of hits” value is given as 45, the “KinomeScan S(10) number of hits” value is recorded as 105 and the “KinomeScan S(35) number of hits” value is 143. In addition, the “% β-catenin induction” value in the assay on β-catenin was determined as 100%.

Consider `C#Cc1cc(Nc2cc(Oc3ccc(NC(=O)Nc4cc(C(C)(C)C)nn4-c4ccc(N(C)C)cc4)c4ccccc34)ccn2)cc(C(=O)NCCOCCOCCOC)c1` [Example 11, 3-((4-((4-(3-(3-(tert-Butyl)-1-(4-(dimethylamino)phenyl)-1H-pyrazol-5-yl)ureido)-naphthalen-1-yl)oxy)pyridin-2-yl)amino)-5-ethynyl-N-(2-(2-(2-methoxyethoxy)ethoxy)-ethyl)benzamide], for which the negative logarithm of the IC50 (pIC50) on p38 MAPKα was 6.12; against c-Src, under 5.92; at Syk, under 5.92; against GSK3α, 4.92; in the assay on PBMCs it was 8.37; with HT29 cells, 8.21.

In the case of `C#Cc1cc(Nc2nccc(Oc3ccc(NC(=O)Nc4cc(C(C)(C)C)nn4-c4ccc(C)cc4)c4c3CCCC4)n2)cc(C(=O)NCCOCCOCCOC)c1` [Example 12, 3-((4-((4-(3-(3-(tert-Butyl)-1-(p-tolyl)-1H-pyrazol-5-yl)ureido)-5,6,7,8-tetrahydronaphthalen-1-yl)oxy)pyrimidin-2-yl)amino)-5-ethynyl-N-(2-(2-(2-methoxyethoxy)-ethoxy)ethyl)benzamide], the pIC50 on GSK3α is 4.90; with PBMCs, 7.93; with HT29 cells, 7.96.
